US7902135B2, “Method of improving the ocular tolerance of foaming and/or detergent compositions for skin use” (Societe d'Exploitation de Produits pour les Industries …, priority 2006, dated 2011)

Tested on: chorioallantoic membrane of the preincubated Leghorn hen's egg
Assay: HET-CAM (Hen's Egg Test ChorioAllantoic Membrane) test of ocular irritation potential
Conditions: for Classification of the concentrate tested: HET-CAM, active material concentration of 1%, pH 7, class by scale of the index I
Excerpt: The experimental protocol of this test is adapted from the Luepke publication (The Hen's Egg Test: “An Alternative Toxicity Test”, Brit. J. Dermato., 1986, 115. Suppl. 31, 133-135, Luepke N. P. & Kemper F. H. The HET-CAM Test: “An Alternative to the Draize Test”, Food Chem. Toxicol., 1986, 24, No. 6/7, 495-496), from the INVITTOX No. 47 protocol (1992, INVITTOX data bank, 34 Stoney Street, Nottingham, NG1 1NB, UK) and from Annex IV to the order published in the Official Journal of the French Republic of 26 Dec. 1996 relating to the official methods for the analysis of beauty products (NOR: FCEC9600217A).
This tests consists in assessing the irritation potential of a substance by reading the modifications observed after application of a solution of this substance to the richly vascularized chorioallantoic membrane of the preincubated Leghorn hen's egg.
The products were tested at an active material concentration of 1%. The solutions are prepared by diluting in deionized water at most 24 hours in advance.
The pH of the test solutions is adjusted to 7 with triethanolamine or lactic acid, if necessary.
On reception, the fertilized eggs are preincubated in an incubator for 10 days at 37.8° C.±0.5° C. with a degree of humidity in the incubator of 50% to 60%.
The shell of the eggs on which the tests are carried out is cut out around the air pocket and the chorioallantoic membrane is uncovered by carefully removing the shell membrane using tweezers.
0.3 cm^3 of the solution to be tested is deposited at the surface of the membrane. […]
By definition, if one of the phenomena has not appeared during these five minutes (300 seconds), it is recorded ti=301 seconds.
Each solution is tested on 4 to 6 eggs according to the repeatability of the reactions observed. The Het-Cam index I, representative of the test, is calculated for each egg tested in the following way: I=5×(301−t1)/300+7×(301−t2)/300+9×(301−t3)/300
The mean of the individual indices is subsequently calculated, along with the statistical uncertainty i: i=t·S/√n for a risk of 5% […]

Sodium lauryl ether (2.2 EO) sulfate [compound 1]
Classification of the concentrate tested: Irritating (9 ≦ . . . I < 12) | Classification of the concentrate tested (listed as comparative example 1): irritating | Het-Cam index (active material concentration of 1% in deionized water, pH adjusted to 7, 0.3 cm^3 on membrane, rinsed after 20 seconds, read over 5 minutes, mean of 4 to 6 eggs): 10.7
